Assay results reported in patent US9282744B2, “Synergistic fungicide composition” (JIANGSU HUIFENG AGROCHEMICAL CO., LTD., priority 2012, dated 2016).
Converted amounts (≈) assume the structure as drawn.

What was measured:
[1] = system: cucumber downy mildew pathogenic fungi; assay: Test of toxicity of compound benziothiazolinone and iprodione on cucumber downy mildew; assay type: in vivo; settings: for ATI (actual toxicity index): benziothiazolinone as standard = 100; for EC50: cucumber downy mildew, Table 3
Protocol: (§1) The incidence of whole cucumber leaves was investigated according to test grading level, and the disease index and the prevention and treatment effect were calculated.
(§2) The prevention and treatment effect was converted into probability values (y), the heights of the chemicals (μg/ml) were converted into logarithm values (x), the toxicity equation and the median inhibition concentration EC50 were calculated by the least square method, and the toxicity index level co-toxicity coefficient (CTC) of the chemicals was calculated according to the Sun Yunpei's method. Actual toxicity index(ATI)=(EC50 of the standard reagent/EC50 of the test reagent)×100 Theoretical toxicity index(TTI)=the toxicity index of chemicalA×the percentage of A in the mixture+the toxicity index of chemical B×the percentage of B in the mixture Co-toxicity coefficient(CTC)=[Actual toxicity index(ATI) of the mixture/Theoretical toxicity index(TTI) of the mixture][…]
3. Test of Toxicity of Compound Benziothiazolinone and Iprodione on Cucumber Downy Mildew

[2] = system: cucumber downy mildew pathogenic fungi; assay: Test of toxicity of compound benziothiazolinone and dimethomorph on cucumber downy mildew; assay type: in vivo; settings: for ATI (actual toxicity index): benziothiazolinone as standard = 100; for EC50: cucumber downy mildew, Table 2
Protocol: as §1, §2
2. Test of Toxicity of Compound Benziothiazolinone and Dimethomorph on Cucumber Downy Mildew

[3] = system: cucumber downy mildew pathogenic fungi; assay: Test of toxicity of compound benziothiazolinone and dithianon on cucumber downy mildew pathogenic fungi; assay type: in vivo; settings: for ATI (actual toxicity index): benziothiazolinone as standard = 100; for EC50: cucumber downy mildew, Table 1
Protocol: 1. Test of Toxicity of Compound Benziothiazolinone and Dithianon on Cucumber Downy Mildew Pathogenic Fungi
Subjects for Test: Cucumber Downy Mildew Pathogenic Fungi
as §1, §2

[4] = system: cucumber downy mildew pathogenic fungi; assay: Test of toxicity of compound benziothiazolinone and epoxiconazol on cucumber downy mildew; assay type: in vivo; settings: for ATI (actual toxicity index): benziothiazolinone as standard = 100; for EC50: cucumber downy mildew, Table 4
Protocol: as §1, §2
4. Test of Toxicity of Compound Benziothiazolinone and Epoxiconazol on Cucumber Downy Mildew

[5] = system: oomycetes fungi; settings: formation stages of sporangiophores and oospores of oomycetes; cited from earlier work
[6] = Cucumis sativus, read-out: EC50

| Structure (SMILES) | ATI (actual toxicity index) [1] | ATI (actual toxicity index) [2] | ATI (actual toxicity index) [3] | ATI (actual toxicity index) [4] | EC50 [4] | other results |
| --- | --- | --- | --- | --- | --- | --- |
| O=c1[nH]sc2ccccc12 [Benziothiazolinone] | 100.00 | 100.0 | 100.0 | 100.00 | 3.81 µg/mL (≈ 25.2 µM) | EC50 [1]: 4.21 µg/mL (≈ 27.8 µM); EC50 [2]: 4.08 µg/mL (≈ 27 µM); EC50 [3]: 3.25 µg/mL (≈ 21.5 µM) |
| COc1ccc(C(=CC(=O)N2CCOCC2)c2ccc(Cl)cc2)cc1OC [Dimethomorph] |  | 63.9 |  |  |  | EC50 [2, 6]: 6.36 µg/mL (≈ 16.4 µM); concentration at which inhibited [5]: 0.25 µg/mL |
| N#Cc1sc2c(=O)c3ccccc3c(=O)c=2sc1C#N [Dithianon] |  |  | 60.1 |  |  | EC50 [3, 6]: 5.41 µg/mL (≈ 18.3 µM) |
| Fc1ccc([C@]2(Cn3cncn3)O[C@H]2c2ccccc2Cl)cc1 [Epoxiconazol] |  |  |  | 89.65 | 4.25 µg/mL (≈ 12.9 µM) |  |
| CC(C)NC(=O)N1CC(=O)N(c2cc(Cl)cc(Cl)c2)C1=O [Iprodione] | 72.34 |  |  |  |  | EC50 [1, 6]: 5.82 µg/mL (≈ 17.6 µM) |
